The structures appear in SMILES notation. Bounds are passed on as bounds.

The nature of data set [1]: Unbound intrinsic clearance in rat hepatocytes. The format is ADME, cell-based, Hepatocyte.
Data set [2] can be described thus: Unbound intrinsic clearance in human hepatocytes. The format is ADME, cell-based, Hepatocyte.
The nature of data set [3]: Oral bioavailability in rat. The format is ADME, organism-based. Particulars: in vivo.
Data set [4] in a line: Unbound clearance in rat. The format is ADME. The following applies: in vivo.
For data set [5], the target named is Tryptophan 2,3-dioxygenase (Homo sapiens, UniProt P48775). Description: Inhibition of TDO in human SW48 cells using L-tryptophan as substrate incubated for 48 hrs by fluorescent microplate reader assay. The format is cell-based.
The nature of data set [6]: Elimination half life in rat. The format is ADME. The following applies: in vivo, read-out: beta t1/2 (converted).
Data set [7] is described as follows: Apparent permeability in MDCK2 cells. The format is ADME, cell-based, Canis lupus familiaris, MDCK-II. The following applies: dog, MDCK.
A short description of data set [8]: Clearance in rat. Particulars: in vivo. The format is ADME.
The target in data set [9] is Indoleamine 2,3-dioxygenase 1 (Homo sapiens) (UniProt P14902). Particulars: Blood.
Description: Inhibition of IDO1 in human whole blood stimulated with IFNgamma/LPS using L-tryptophan/kynurenine as substrate incubated for 15 mins prior to IFNgamma/LPS stimulation and further incubated for 18 hrs followed by isotope labeled L-tryptophan/kynurenine addition on day 2 by LC/MS-MS analysis
The nature of data set [10]: Unbound intrinsic clearance in dog hepatocytes. The format is ADME, cell-based, Canis lupus familiaris, Hepatocyte.
Data set [11] can be described thus: Unbound clearance in dog. The format is ADME, Canis lupus familiaris. The following applies: in vivo.
A further data set has as its target CYP450 (Homo sapiens, UniProt P04798+P05177+P05181+P08684+P10632+P10635+P11509+P11712+P13584+P20813+P20815+P20853+P24462+P24903+P33260+P33261+P51589+P78329+P98187+Q02928+Q08477+Q16678+Q16696+Q5TCH4+Q6VVX0+Q7Z449+Q8TAV3+Q96SQ9+Q9HB55). Description: Inhibition of CYP450 (unknown origin). The format is ADME, protein assay.
Data set [12] addresses MDR1 (ABCB1, P-glycoprotein) (Homo sapiens, UniProt P08183). Description: Substrate activity at human MDR1 expressed in pig LLC-PK1 cells assessed as efflux ratio of permeability across basolateral to apical over apical to basolateral membrane at 1 mM after 3 hrs by LC/MS/MS analysis. Set-up: dose or concentration left out as unconfirmed.
The target of the next data set is CYP3A4 (Homo sapiens, UniProt P08684). Description: Inhibition of CYP3A4 (unknown origin) assessed as TDI shift ratio.
Data set [13] addresses T1, Nuclear receptor subfamily 1 group I member 2 (Homo sapiens, UniProt O75469).
T1 sequence (O75469 whole entry): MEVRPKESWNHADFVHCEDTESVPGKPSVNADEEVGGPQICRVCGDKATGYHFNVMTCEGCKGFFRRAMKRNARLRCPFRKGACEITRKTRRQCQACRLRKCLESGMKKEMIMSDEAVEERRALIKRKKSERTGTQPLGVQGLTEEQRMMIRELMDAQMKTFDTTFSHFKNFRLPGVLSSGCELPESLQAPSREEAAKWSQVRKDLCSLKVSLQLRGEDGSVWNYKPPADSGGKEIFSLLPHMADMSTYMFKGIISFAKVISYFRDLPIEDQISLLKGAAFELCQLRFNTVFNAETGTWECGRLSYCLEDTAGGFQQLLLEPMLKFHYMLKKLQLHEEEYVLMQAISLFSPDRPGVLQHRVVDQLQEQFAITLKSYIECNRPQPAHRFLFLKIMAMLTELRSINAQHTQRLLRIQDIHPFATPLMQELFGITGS
Description: Activation of PXR (unknown origin).

Data set [14] can be described thus: Elimination half life in dog. The format is ADME, Canis lupus familiaris. The following applies: in vivo, read-out: beta t1/2 (converted).
Data set [15] in a line: Clearance in dog. Particulars: in vivo. The format is ADME, Canis lupus familiaris.
The nature of data set [16]: Oral bioavailability in dog. The format is ADME, organism-based, Canis lupus familiaris. The following applies: in vivo.

Tryptophan 2,3-dioxygenase, sequence (P48775 whole entry): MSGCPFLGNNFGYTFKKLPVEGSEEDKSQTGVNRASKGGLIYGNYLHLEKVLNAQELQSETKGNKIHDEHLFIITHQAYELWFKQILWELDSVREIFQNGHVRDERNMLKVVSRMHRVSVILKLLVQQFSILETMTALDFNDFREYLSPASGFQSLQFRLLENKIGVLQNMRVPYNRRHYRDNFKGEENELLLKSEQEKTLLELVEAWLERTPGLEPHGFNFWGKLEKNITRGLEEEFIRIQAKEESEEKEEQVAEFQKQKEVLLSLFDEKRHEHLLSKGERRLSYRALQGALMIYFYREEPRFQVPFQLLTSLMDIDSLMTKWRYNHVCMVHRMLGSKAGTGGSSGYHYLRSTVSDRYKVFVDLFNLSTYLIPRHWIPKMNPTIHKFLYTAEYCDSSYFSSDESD
CYP3A4, sequence (P08684 whole entry): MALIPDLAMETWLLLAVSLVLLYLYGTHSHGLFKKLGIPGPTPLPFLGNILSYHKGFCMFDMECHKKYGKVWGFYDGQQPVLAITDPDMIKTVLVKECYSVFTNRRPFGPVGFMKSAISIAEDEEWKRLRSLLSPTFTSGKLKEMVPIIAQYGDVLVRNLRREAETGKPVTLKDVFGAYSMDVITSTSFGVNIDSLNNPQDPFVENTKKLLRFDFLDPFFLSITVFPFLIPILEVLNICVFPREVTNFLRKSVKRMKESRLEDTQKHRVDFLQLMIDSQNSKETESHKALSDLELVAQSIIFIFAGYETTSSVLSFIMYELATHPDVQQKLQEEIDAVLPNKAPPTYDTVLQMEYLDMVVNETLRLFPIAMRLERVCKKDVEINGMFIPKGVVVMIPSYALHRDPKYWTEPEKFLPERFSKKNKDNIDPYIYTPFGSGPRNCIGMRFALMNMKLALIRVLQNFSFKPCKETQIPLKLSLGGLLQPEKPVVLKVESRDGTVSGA
Indoleamine 2,3-dioxygenase 1 (Homo sapiens), sequence (P14902 whole entry, looked up): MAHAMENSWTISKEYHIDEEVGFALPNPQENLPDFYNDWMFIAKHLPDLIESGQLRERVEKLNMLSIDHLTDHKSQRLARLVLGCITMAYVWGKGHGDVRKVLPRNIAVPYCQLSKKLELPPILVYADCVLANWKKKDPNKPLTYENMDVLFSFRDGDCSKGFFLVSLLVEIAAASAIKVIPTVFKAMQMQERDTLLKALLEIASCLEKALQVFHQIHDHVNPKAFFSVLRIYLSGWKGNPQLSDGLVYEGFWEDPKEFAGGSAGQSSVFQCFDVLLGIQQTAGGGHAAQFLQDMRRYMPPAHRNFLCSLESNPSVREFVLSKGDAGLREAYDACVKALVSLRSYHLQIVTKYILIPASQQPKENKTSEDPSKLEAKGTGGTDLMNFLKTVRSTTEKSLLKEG
MDR1 (ABCB1, P-glycoprotein), sequence (P08183 whole entry): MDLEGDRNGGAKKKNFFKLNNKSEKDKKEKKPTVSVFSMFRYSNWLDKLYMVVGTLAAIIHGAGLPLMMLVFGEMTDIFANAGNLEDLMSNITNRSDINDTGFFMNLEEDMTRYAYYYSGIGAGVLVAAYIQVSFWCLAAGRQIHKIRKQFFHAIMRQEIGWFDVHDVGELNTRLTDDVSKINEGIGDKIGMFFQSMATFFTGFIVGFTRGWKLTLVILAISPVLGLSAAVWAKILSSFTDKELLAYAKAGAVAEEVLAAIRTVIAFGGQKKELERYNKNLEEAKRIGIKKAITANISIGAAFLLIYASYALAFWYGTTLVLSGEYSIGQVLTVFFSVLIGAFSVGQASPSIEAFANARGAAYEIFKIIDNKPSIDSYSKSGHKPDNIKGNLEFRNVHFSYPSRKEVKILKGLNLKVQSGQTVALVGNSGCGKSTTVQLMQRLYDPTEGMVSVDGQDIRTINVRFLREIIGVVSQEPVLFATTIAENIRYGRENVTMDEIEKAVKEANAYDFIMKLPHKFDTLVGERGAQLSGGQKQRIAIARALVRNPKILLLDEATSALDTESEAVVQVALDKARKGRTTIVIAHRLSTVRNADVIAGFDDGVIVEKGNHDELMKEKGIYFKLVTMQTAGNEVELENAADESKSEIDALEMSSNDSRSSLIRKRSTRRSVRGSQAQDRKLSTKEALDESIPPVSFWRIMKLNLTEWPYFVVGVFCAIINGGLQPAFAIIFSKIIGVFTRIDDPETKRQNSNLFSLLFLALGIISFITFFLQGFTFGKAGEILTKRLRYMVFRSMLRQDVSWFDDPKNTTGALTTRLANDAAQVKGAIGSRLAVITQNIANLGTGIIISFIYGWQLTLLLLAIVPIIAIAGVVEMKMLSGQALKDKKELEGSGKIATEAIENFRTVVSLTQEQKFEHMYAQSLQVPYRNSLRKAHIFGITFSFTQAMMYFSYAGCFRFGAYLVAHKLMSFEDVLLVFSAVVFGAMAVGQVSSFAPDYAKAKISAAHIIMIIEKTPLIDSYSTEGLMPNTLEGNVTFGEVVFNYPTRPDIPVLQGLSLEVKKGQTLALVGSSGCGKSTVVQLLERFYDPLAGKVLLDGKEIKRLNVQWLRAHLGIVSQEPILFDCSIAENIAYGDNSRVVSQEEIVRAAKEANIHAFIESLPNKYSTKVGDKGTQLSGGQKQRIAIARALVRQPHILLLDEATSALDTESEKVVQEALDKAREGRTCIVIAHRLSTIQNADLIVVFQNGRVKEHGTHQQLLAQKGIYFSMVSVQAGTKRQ

With `CC(C)(C(=O)Nc1ccc(F)cc1)C12CC(NC(=O)c3cccc(Cl)c3)(C1)C2`, the figures for the CL free in data set [1] and in [2] were 197 mL/min/kg and 51 mL/min/kg, respectively.
Consider `C[C@H](C(=O)Nc1ccc(F)cc1)C12CC(NC(=O)c3cccc(Cl)c3)(C1)C2`, for which, in data set [3], the bioavailability came to 110%. The CL free was 194 mL/min/kg in data set [4], 247 to 248 mL/min/kg in [1] and 48 mL/min/kg in [2]. In data set [5], this molecule showed an IC50 above 10 µM. Moreover, the half-life in data set [6] is 3.7 h. In addition, the apparent permeability coefficient (Papp) in [7] was determined as 32 ×10⁻⁶ cm/s. In data set [8], this molecule had a clearance of 5 mL/min/kg.
As to `C[C@H](C(=O)Nc1ccc(F)cc1)C12CC(NC(=O)OC3CCCC3)(C1)C2`, the figures for the CL free in data set [1] and in [2] were 4457 mL/min/kg and 2357 mL/min/kg, respectively.
For the molecule `O=C(Nc1ccc(C2(C(=O)Nc3ccc(F)cc3)CCC2)cc1)c1cccc(Cl)c1`, the CL free in [4] stood at 4371 mL/min/kg; in [1], 1935 mL/min/kg.
With `C[C@H](C(=O)Nc1ccc(F)cc1)C12CC(Nc3ncnc4ccccc34)(C1)C2`, the CL free amounted to 1494 mL/min/kg in data set [1] and 1544 mL/min/kg in data set [2].
For `C[C@H](C(=O)Nc1ccc(F)cc1)C12CC(NC(=O)c3ccc(F)c(Cl)c3)(C1)C2` the same measures were 295 mL/min/kg and 56 mL/min/kg.
In the case of `C[C@H](C(=O)Nc1ccc(F)cc1)C12CC(NC(=O)c3cccc(Cl)n3)(C1)C2`, the CL free was 644 mL/min/kg in data set [1] and 82 mL/min/kg in data set [2].
For the molecule `C[C@H](C(=O)Nc1ccc(F)cc1)C12CC(NC(=O)c3ccc(F)c(F)c3)(C1)C2`, the figures for the bioavailability in data set [3] and in [16] were 83% and 79%, respectively. In addition, in [9], the 90% effect level (IC90) was put at 0.912 µM. The CL free in data set [10] came out at 121 mL/min/kg; in data set [11] it was 22 mL/min/kg; in data set [4], 37 mL/min/kg; in data set [1] it was 195 mL/min/kg; in data set [2], 52 mL/min/kg. Moreover, the IC50 was above 10 µM in data set [5] and above 50 µM on CYP450. In data set [12], the efflux ratio at 3 h is 1.3. For the same molecule, the results for the half-life in [6] and in data set [14] were 11 h and 36 h, respectively. Besides, the IC50 shift on CYP3A4 stood at 1. In [13], this molecule gave an EC50 above 30 µM. For the same molecule, the values for the clearance in data set [15] and in data set [8] were 1.1 mL/min/kg and 2 mL/min/kg, respectively. Moreover, the Papp in data set [7] came out at 29 ×10⁻⁶ cm/s.
Take `C[C@H](C(=O)Nc1ccc(F)cc1)C12CC(Nc3ncnc4ccc(F)cc34)(C1)C2`: the CL free stood at 549 mL/min/kg in data set [1] and 723 mL/min/kg in data set [2].
Turning to `C[C@H](C(=O)Nc1ccc(Cl)cc1)C12CC(NC(=O)c3cccc(Cl)c3)(C1)C2`, the CL free in [1] came to 150 mL/min/kg; in data set [2], 47 mL/min/kg.
As for `C[C@H](C(=O)Nc1ccc(Cl)nc1)C12CC(NC(=O)c3cccc(Cl)c3)(C1)C2`, the CL free in data set [1] is 133 mL/min/kg; in data set [2], 34 mL/min/kg.
Regarding `C[C@H](C(=O)Nc1ccc(F)cc1)C12CC(NC(=O)c3cc(F)cc(Cl)c3)(C1)C2`, the CL free is 441 mL/min/kg in [1] and 56 mL/min/kg in data set [2].
Regarding `C[C@H](C(=O)Nc1ccc(F)cc1)C12CC(NC(=O)c3cccc(Cl)c3F)(C1)C2`, the CL free came out at 765 mL/min/kg in [1] and 591 mL/min/kg in data set [2].
Take `CC(C)OC(=O)NC12CC([C@H](C)C(=O)Nc3ccc(F)cc3)(C1)C2`: the CL free in data set [1] came out at 2925 mL/min/kg; in data set [2], 369 mL/min/kg.

The IC50 is the concentration that inhibits the measured activity by half. By Papp is commonly meant a coefficient for how fast a substance crosses the barrier. As usually defined, the clearance is the volume of plasma or blood freed of the substance per unit of time. The term IC90 denotes the concentration needed for an effect of 90%. One may read the efflux ratio as the permeability from basolateral to apical divided by that in the opposite direction, in the common usage. The EC50 is the concentration giving half of the maximal effect.

The values are drawn from ChEMBL document CHEMBL4619812, “Discovery of Potent and Orally Available Bicyclo[1.1.1]pentane-Derived Indoleamine-2,3-dioxygenase 1 (IDO1) Inhibitors” (ACS Med Chem Lett, 2020).
